# Where two headings read alike, the source gives them in different places. Square brackets hold non-standard residues; d marks the D form. Ends that are not written are not given here. Peptide text beside a SMILES is read from it.
# Columns and labels:
# Meth A tumors = test: Tumor regression, murine Meth A fibrosarcoma; format: in vivo, mice; conditions: for regression of Meth A tumors: injected intratumorally, treatment on day 7 and 10
# Procedure: Specific pathogen-free CB6F1 (Balb/c×C57 BL/6) female mice of about 8 weeks of age were obtained from Charles River (Germany). The mice were kept on standard laboratory chow and water. Tumor bearing mice were serologically screened for viral (LDH, CMV) and mycoplasmic infection and in all cases tested negative.
# After a single inoculation of 5×10^7 viable Meth A cells, different LF peptides were injected intratumorally (LFB-14-31, LFB 17-31 Pmc, 500 μg in a 50 μl dose; LFB 17-31, 1000 μg in a 50 μl dose), on day 7 and day 10. LFB 14-31 was also injected intraperitoneally (PBI), 500 μg/ml. Saline only was injected in the control mice (50 μl) (K1,K2,K3). The tumor diameter (mean of transversal and longitudinal) were measured with an electronic calipper.
# human red blood cells = test: Hemolytic assay; format: cell-based
# [1] = test system: Meth A cells (murine sarcoma cell line); test: Cytotoxicity on Meth A cells, MTT method
# Outline: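 Meth A cells in RPMI with 10% FBS exposed to peptides (final e.g. […]) for 4 h, then MTT added for 2 h; formazan dissolved in acid isopropanol and absorbance read at 590 nm. Medium alone and 1% Triton X-100 defined 0% and 100% killing.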
# [2] = test system: Staphylococcus aureus ATCC 25923; format: cell-based
# Outline: (§1)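 Standard broth microdilution MIC in 1% Bacto Peptone water, inoculum 2×10^6 CFU/ml of mid-log-phase bacteria grown in 2% peptone water. Run in triplicate; peptide concentration in wells verified by HPLC.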
# [3] = test system: Escherichia coli ATCC 25922; format: cell-based
# Outline: as §1
# [4] = test system: human promyelotic leukemia cell line HL 60; test: Cytotoxicity on HL 60 cells, MTT; format: cell-based
# [5] = test system: MRSA (methicillin resistant S. aureus); format: cell-based
# Procedure: The bacterial strains used were: Escherichia coli ATCC 25922 and Staphylococcus aureus ATCC 25923. All strains were stored at −70° C. The bacteria were grown in 2% Bacto Peptone water (Difco 1807-17-4). All tests were performed with bacteria in mid-logarithmic growth phase. Determination of the minimum inhibitory concentration (MIC) of the peptides for bacterial strains were performed in 1% Bacto Peptone water. A standard microdilution technique with an inoculum of 2×10^6 CFU/ml was used. All assays were performed in triplets. Since the peptides are positively charged and therefore could adhere to the plastic wells, we controlled the actual concentration of the peptides in the solution by HPLC. There was no difference between the concentration of the peptides before or after adding the solution to the plastic wells.
# Table 13 below gives the antibacterial activity and toxicity data for some preferred peptides of the invention. MRSA is methicillin resistant S. aureus and MRSE is methicillin resistant S. epidermidis.
# [6] = format: physicochemical
# Excerpt: Peptide W3714, with three additional tryptophan residues (a total of five tryptophan residues in the peptide), has decreased activity. […] This has been physically observed during MIC testing procedures when the peptide tended to precipitate at high concentrations.
# [7] = at the concentration tested, 4 hours
compound,measurement,setting,value
CSCC[C@H](NC(=O)[C@H](CCCNC(=N)N)NC(=O)[C@H](Cc1c[nH]c2ccccc12)NC(=O)[C@H](CCC(N)=O)NC(=O)[C@H](Cc1c[nH]c2ccccc12)NC(=O)[C@H](CCCNC(=N)N)NC(=O)[C@H](CCCNC(=N)N)NC(=O)[C@H](CSCNC(C)=O)NC(=O)[C@H](CCCCN)NC(=O)[C@H](Cc1ccccc1)NC(=O)[C@H](Cc1c[nH]c2ccccc12)NC(=O)[C@H](CCC(=O)O)NC(=O)[C@@H]1CCCN1)C(=O)N[C@@H](CCCCN)C(=O)N[C@@H](CCCCN)C(=O)N[C@@H](CC(C)C)C(=O)NCC(=O)N[C@@H](C)C(=O)O [LFB 14-31],regression of Meth A tumors,Meth A tumors,induced regression of the Meth A tumors
same,eradication of Meth A tumors,Meth A tumors; treated intraperitoneally,tumors were also eradicated
same,EC50,human red blood cells; red cells of human,> 404 µM
same,MethA IC50,"[1]; Table 7, peptide required to kill 50% of MethA cells",no activity
same,MIC S. aureus,[2]; ATCC 25923,>250 µg/mL
same,MIC S. aureus ATCC 25923,[2]; ATCC 25923,200 µg/mL
same,MIC S. aureus ATCC 25923,"[2]; Table 1, value in brackets",80 µM
same,MIC E. coli,[3]; ATCC 25922,70 µg/mL
same,MIC E. coli ATCC 25922,[3]; ATCC 25922,70 µg/mL
same,MIC E. coli ATCC 25922,"[3]; Table 1, value in brackets",28 µM
same,cytotoxic effect on human HL 60 cells,[4],no cytotoxic effect
"CSCC[C@H](NC(=O)[C@H](CCCNC(=N)N)NC(=O)[C@H](Cc1c[nH]c2ccccc12)NC(=O)[C@H](CCC(N)=O)NC(=O)[C@H](Cc1c[nH]c2ccccc12)NC(=O)[C@H](CCCNC(=N)N)NC(=O)[C@H](CCCNC(=N)N)NC(=O)[C@H](CSCNC(C)=O)NC(=O)[C@H](CCCCN)NC(=O)[C@@H](N)Cc1ccccc1)C(=O)N[C@@H](CCCCN)C(=O)N[C@@H](CCCCN)C(=O)N[C@@H](CC(C)C)C(=O)NCC(=O)N[C@@H](C)C(=O)O [LFB 17-31, H2N-Phe-Lys-Cys-Arg-Arg-Trp-Gln-Trp-Arg-Met-Lys-Lys-Leu-Gly-Ala-COOH]",regression of Meth A tumors,Meth A tumors,induced regression of the Meth A tumors
same,cytotoxic effect on Meth A cells,"[1]; 1 mg/ml, 4 hours incubation",weak effect
same,cytotoxic effect on Meth A cells,"[1]; concentrations up to 1 mg/ml, ½ hour incubation",no significant cytotoxic effect
same,MIC S. aureus ATCC 25923,"[2]; Table 1, value in brackets",50 µM
same,MIC S. aureus,"[2]; Table 3, unit assumed",100 µg/mL
same,MIC S. aureus,"[2]; Table 4, unit assumed",100 µg/mL
same,MIC S. aureus,"[2]; Table 6, unit assumed",100 µg/mL
same,MIC E. coli ATCC 25922,"[3]; Table 1, value in brackets",20 µM
same,MIC E. coli,[3]; Table 3,50 µg/mL
same,MIC E. coli,[3]; Table 4,50 µg/mL
same,MIC E. coli,[3]; Table 6,50 µg/mL
same,cytotoxic effect on human HL 60 cells,[4]; [7],no cytotoxic effect
"CSCC[C@H](NC(=O)[C@H](CCCNC(=N)N)NC(=O)[C@H](Cc1ccc2ccccc2c1)NC(=O)[C@H](CCC(N)=O)NC(=O)[C@H](Cc1ccc2ccccc2c1)NC(=O)[C@H](CCCNC(=N)N)NC(=O)[C@H](CCCNC(=N)N)NC(=O)[C@H](CSCNC(C)=O)NC(=O)[C@H](CCCCN)NC(=O)[C@@H](N)Cc1ccccc1)C(=O)N[C@@H](CCCCN)C(=O)N[C@@H](CCCCN)C(=O)N[C@@H](CC(C)C)C(=O)NCC(=O)N[C@@H](C)C(=O)O [LFB Nal6, 8]",EC 50,human red blood cells,>1000 µg/mL
same,EC50,human red blood cells,> 479 µM
same,% Hemolysis 10 μg/ml,human red blood cells; red cells of human,2.8%
same,% Hemolysis 100 μg/ml,human red blood cells; red cells of human,4.9%
same,MIC S. aureus,[2]; ATCC 25923,9.6 µM
same,MIC S. aureus,[2]; Table 8,20 µg/mL
same,MIC S. aureus,"[2]; Table 13, 8",20.0 µg/mL
same,MIC E. coli,[3]; ATCC 25922,4.8 µM
same,MIC E. coli,[3]; Table 8,10 µg/mL
same,MIC E. coli,"[3]; Table 13, 8",10.0 µg/mL
same,MIC MRSA,"[5]; Table 13, 8",5.0 µg/mL
same,MIC MRSA,[5]; methicillin resistant,2.4 µM
"H-FKWRRWWWRMKKLWA-OH [LFB W3, 7, 14, H2N-Phe-Lys-Trp-Arg-Arg-Trp-Trp-Trp-Arg-Met-Lys-Lys-Leu-Trp-Ala-COOH]",% Hemolysis 10 μg/ml,human red blood cells; red cells of human,4.02%
same,% Hemolysis 100 μg/ml,human red blood cells; red cells of human,66.1%
same,MIC S. aureus,[2]; ATCC 25923,20 µg/mL
same,MIC S. aureus,"[2]; Table 6, unit assumed",20 µg/mL
same,MIC E. coli,[3]; ATCC 25922,20 µg/mL
same,MIC E. coli,[3]; Table 6,20 µg/mL
same,solubility in aqueous solutions,[6],less soluble in aquous solutions
"CC[C@H](C)[C@H](NC(=O)[C@H](CO)NC(=O)[C@@H]1CCCN1C(=O)[C@H](C)NC(=O)CNC(=O)[C@H](CC(C)C)NC(=O)[C@H](CCCCN)NC(=O)[C@H](CCCCN)NC(=O)[C@H](CCSC)NC(=O)[C@H](CCCNC(=N)N)NC(=O)[C@H](Cc1c[nH]c2ccccc12)NC(=O)[C@H](CCC(N)=O)NC(=O)[C@H](Cc1c[nH]c2ccccc12)NC(=O)[C@H](CCCNC(=N)N)NC(=O)[C@H](CCCNC(=N)N)NC(=O)[C@H](CSCNC(C)=O)NC(=O)[C@H](CCCCN)NC(=O)[C@@H](N)Cc1ccccc1)C(=O)N[C@H](C(=O)N[C@@H](CSCNC(C)=O)C(=O)N[C@H](C(=O)N[C@@H](CCCNC(=N)N)C(=O)N[C@@H](CCCNC(=N)N)C(=O)N[C@@H](C)C(=O)N[C@@H](Cc1ccccc1)C(=O)O)C(C)C)[C@@H](C)O [LFB (17-41), reference compound]",MIC S. aureus ATCC 25923,[2]; Table 1,30 µg/mL
same,MIC E. coli ATCC 25922,[3]; Table 1,30 µg/mL
same,cytotoxic effect on human HL 60 cells,[4]; [7],weak concentration dependant cytotoxic effect
N=C(N)NCCC[C@@H](N)C(=O)N[C@H](Cc1c[nH]c2ccccc12)C(=O)N[C@@H](Cc1c[nH]c2ccccc12)C(=O)N[C@@H](CCCNC(=N)N)C(=O)N[C@@H](Cc1ccc(O)cc1)C(=O)N[C@H](Cc1c[nH]c2ccccc12)C(=O)N[C@H](CCCNC(=N)N)C(N)=O [arg-trp-TRP-ARG-TYR-trp-arg-CONH2] (H-[dR][dW]WRY[dW][dR]-NH2),MIC S. aureus,[2]; ATCC 25923,5 µg/mL
same,MIC E. coli,[3]; ATCC 25922,7.5 µg/mL
same,MIC MRSA,[5]; methicillin resistant,2.5 µg/mL
C[C@@H](NC(=O)[C@H](CCCNC(=N)N)NC(=O)[C@H](N)Cc1ccc(O)cc1)C(=O)N[C@@H](Cc1c[nH]c2ccccc12)C(=O)N[C@H](CCCNC(=N)N)C(=O)N[C@@H](Cc1c[nH]c2ccccc12)C(=O)N[C@H](C)C(=O)N[C@@H](Cc1c[nH]c2ccccc12)C(=O)N[C@H](CCCNC(=N)N)C(=O)N[C@@H](Cc1c[nH]c2ccccc12)C(=O)N[C@H](CCCNC(=N)N)C(N)=O [tyr-ARG-ala-TRP-arg-TRP-ala-TRP-arg-TRP-arg-CONH2] (H-[dY]R[dA]W[dR]W[dA]W[dR]W[dR]-NH2; N-terminus assumed),MIC S. aureus,[2]; ATCC 25923,7.5 µg/mL
same,MIC E. coli,[3]; ATCC 25922,7.5 µg/mL
same,MIC MRSA,[5]; methicillin resistant,2.5 µg/mL
"YRWWRWARRW-NH2 [LFM 17-26 A7R2,8, 9W3,4, 10Y1NH2]",EC50,human red blood cells,543 ± 56 µM
same,EC 50,"human red blood cells; Table 13, toxicity (hemolysis)",880 ± 90 µg/mL
same,MIC S. aureus,[2]; Table 13,1.0 µg/mL
same,MIC E. coli,[3]; ATCC 25922,6.2 µM
same,MIC E. coli,[3]; Table 10,10 µg/mL
same,MIC E. coli,[3]; Table 13,10.0 µg/mL
same,MIC MRSA,[5]; Table 13,2.5 µg/mL
same,MIC MRSA,[5]; methicillin resistant,1.5 µM
